Reference: patent US20040208844A1, “Products and drug delivery vehicles” (priority 2001, published 2004)

Biological target: T1, Human placenta or human platelet vitronectin receptor, αvβ3 (Homo sapiens, UniProt P05106+P06756)
T1 construct: Human placenta or human platelet vitronectin receptor, αvβ3; from tissue; host or cells: human placenta or human platelets
Test: [3H]-SK&F-107260 vitronectin receptor binding assay
Conditions: sample dissolved in 1:1 TBS:DMSO; 5 nM [3H]-SK&F-107260
Protocol: In vitro binding affinity of conjugates, polymeric micelles and polymer therapeutics of the present invention may be determined by receptor binding assays such as are known in the art. Conjugates, polymeric micelles and polymer therapeutics of the present invention will have a Ki (the dissociation constant of the antagonist) according to a receptor binding assay in the nanomolar to micromolar range, preferably in the nanomolar range.
The following samples were prepared for an in vitro binding assay:
Solution #1: polymer-receptor antagonist conjugate according to Example 3b, dissolved in TBS at a concentration of 10 milliMole of VRA 1.
Solution #2: PEG-PLA copolymer according to Example 2B, dissolved in TBS at a concentration of 50 mg/ml;
Solution #3: VRA 1 dissolved in 1:1 TBS:DMSO at a concentration of 10 milliMole;
Solution #4: polymer-receptor antagonist conjugate according to Example 3b, dissolved in 1:1 TBS:DMSO at a concentration of 10 milliMole VRA 1; and […]
Binding studies were carried out according to the method described by Wong et al., Studies on alphavbeta3/ligand interactions using a (^3H)SK&F-107260 binding assay, Mol. Pharmacology, 1996, 50, 529-537. […] After one hour incubation at room temperature, the wells were aspirated completely and washed twice with 100 ul of ice-cold Buffer A. Bound [^3H]-SK&F-107260 was solubilized and counted.

T1 sequence (P06756 31-889 limits assumed): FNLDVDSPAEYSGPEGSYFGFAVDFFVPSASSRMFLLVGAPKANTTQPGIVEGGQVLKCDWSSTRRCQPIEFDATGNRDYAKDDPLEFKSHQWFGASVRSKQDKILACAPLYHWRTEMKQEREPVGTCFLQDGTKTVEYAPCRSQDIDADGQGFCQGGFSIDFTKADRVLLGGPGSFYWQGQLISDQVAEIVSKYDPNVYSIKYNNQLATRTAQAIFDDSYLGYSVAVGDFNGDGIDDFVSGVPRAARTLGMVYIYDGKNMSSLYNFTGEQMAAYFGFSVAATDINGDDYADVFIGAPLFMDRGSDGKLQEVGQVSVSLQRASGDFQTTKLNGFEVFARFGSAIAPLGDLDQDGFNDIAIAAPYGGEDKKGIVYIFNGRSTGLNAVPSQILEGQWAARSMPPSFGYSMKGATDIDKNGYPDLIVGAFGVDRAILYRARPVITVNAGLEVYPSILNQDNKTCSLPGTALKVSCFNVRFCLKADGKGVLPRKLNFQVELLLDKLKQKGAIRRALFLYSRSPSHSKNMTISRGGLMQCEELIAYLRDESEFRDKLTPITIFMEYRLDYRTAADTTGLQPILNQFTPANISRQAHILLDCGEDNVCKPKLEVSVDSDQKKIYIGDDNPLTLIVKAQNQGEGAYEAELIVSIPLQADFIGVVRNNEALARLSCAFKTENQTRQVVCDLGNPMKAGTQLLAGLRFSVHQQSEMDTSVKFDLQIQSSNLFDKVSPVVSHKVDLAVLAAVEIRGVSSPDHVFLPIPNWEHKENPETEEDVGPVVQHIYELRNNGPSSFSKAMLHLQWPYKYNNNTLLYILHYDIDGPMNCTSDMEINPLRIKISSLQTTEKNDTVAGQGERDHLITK
T1 sequence (P06756 891-1048 partner limits assumed): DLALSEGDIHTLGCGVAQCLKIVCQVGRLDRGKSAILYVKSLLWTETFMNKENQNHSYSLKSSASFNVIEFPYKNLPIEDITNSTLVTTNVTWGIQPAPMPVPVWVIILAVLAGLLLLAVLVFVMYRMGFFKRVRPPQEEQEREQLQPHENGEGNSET
T1 sequence (P05106 27-788): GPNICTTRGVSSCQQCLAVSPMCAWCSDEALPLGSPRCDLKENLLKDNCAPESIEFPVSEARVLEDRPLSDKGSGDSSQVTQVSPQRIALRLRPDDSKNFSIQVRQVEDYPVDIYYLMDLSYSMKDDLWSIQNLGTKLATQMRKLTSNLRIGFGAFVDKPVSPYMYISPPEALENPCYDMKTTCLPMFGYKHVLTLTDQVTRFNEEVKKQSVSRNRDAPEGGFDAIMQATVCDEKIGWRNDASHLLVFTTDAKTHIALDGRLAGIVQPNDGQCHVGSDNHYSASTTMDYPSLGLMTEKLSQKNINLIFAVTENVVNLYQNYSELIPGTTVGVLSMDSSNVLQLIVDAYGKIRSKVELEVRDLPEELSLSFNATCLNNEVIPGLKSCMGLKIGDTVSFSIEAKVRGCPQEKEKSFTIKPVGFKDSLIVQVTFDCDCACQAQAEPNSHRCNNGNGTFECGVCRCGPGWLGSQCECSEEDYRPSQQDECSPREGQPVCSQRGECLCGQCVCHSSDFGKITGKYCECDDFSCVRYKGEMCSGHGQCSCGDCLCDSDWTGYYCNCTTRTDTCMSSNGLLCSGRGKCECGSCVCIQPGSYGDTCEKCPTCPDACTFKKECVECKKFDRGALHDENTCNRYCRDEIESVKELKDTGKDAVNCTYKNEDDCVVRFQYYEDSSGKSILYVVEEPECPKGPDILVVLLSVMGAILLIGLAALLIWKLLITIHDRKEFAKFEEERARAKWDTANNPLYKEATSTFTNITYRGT

SMILES: CN1Cc2cc(C(=O)N(CCCCN)Cc3nc4ccccc4[nH]3)ccc2N[C@@H](CC(=O)O)C1=O [VRA 1, (S)-7-[[N-(4-Aminobutyl)-N-(benzimidazol-2-ylmethyl)]amino]carbonyl-4-methyl-3-oxo-2,3,4,5-tetrahydro-1H-1,4-benzodiazepine-2-acetic acid]
- Ki: 1.7 nM
